From PMC8953427, “Enantioselectivity of Pentedrone and Methylone on Metabolic Profiling in 2D and 3D Human Hepatocyte-like Cells” (Pharmaceuticals, 2022)

Legend:
2D-HLCs = assay: Metabolite formation in 2D-HLCs by GC-MS; format: in vitro ADME, human; conditions: 1 mM, 6 h
Procedure: (§1) Regarding the study of methylone and pentedrone metabolite biosynthesis, in 2D-HLCs and 3D-HLCs, at the D17 of the HLCs differentiation, the cells were seeded in 6-well plates in 1 mL of culture medium at a density of 2.0 × 10^5 cells/well and 5.0 × 10^5 cells/well in 2D and 3D cultures, respectively. At D34, 2D-HLCs and 3D-HLCs were exposed to 1 mM of each enantiomer diluted in IMDM. Upon 6 h of incubation, the IMDM was removed and the pellets were quenched with 2 mL of ice-cold acetonitrile and scraped. The quenched solutions were centrifuged for 10 min at 4 °C. After the addition of methcathinone (internal standard) 100 µg/mL, the supernatants were derivatized with TFAA and analyzed by GC–MS [2, 41].
(§2) To study pentedrone and methylone metabolic profiles, we set up a methodology for the identification of pentedrone and methylone phase I metabolites based on a GC–MS methodology developed by Araujo et al. and Uralets et al. with some adaptations. Briefly, samples from the metabolic assays (200 μL) were evaporated to dryness under nitrogen flow. Then, 50 µL of ethyl acetate and 50 µL of TFAA (derivatizing agent) were added to the dried residue. Incubation was performed at 65 °C for 15 min. After cooling to room temperature, the extract was dried under nitrogen flow. The residue obtained was dissolved in 100 μL of ethyl acetate, and 2 μL was injected into the GC–MS apparatus.
(§3) GC–MS analysis was performed with a 436-GC model (Bruker Daltonics, Billerica, MA, USA) coupled to an EVOQ triple quadrupole mass spectrometer (Bruker Daltonics) and a Bruker MS workstation software version 8.2. The chromatographic separation was accomplished using a fused silica capillary column (Rxi-5Sil MS; 30 m × 0.25 mm × 0.25 μm; Restek Corporation, U.S., Bellefonte, PA, USA). The carrier gas was helium C-60 (Gasin, Portugal), at a constant flow of 1 mL/min. Injections were performed in split mode, with a ratio of 1/20. The injector port was heated to 250 °C. The initial column temperature was 80 °C, followed by a temperature increase of 15 °C/min to 150 °C and 10 °C/min to 300 °C. The MS detector was operated in EI mode (70 eV). The temperature of the transfer line, manifold and EI were 280, 40, and 270 °C, respectively. Data acquisition was performed in full scan mode with a mass range between 50 and 800 m/z at a scan rate of 8 scans/s. The emission current was 40 µA. Ionization was maintained off during the first 1.5 min to avoid solvent overloading. Total separation run time was 20 min.
The analysis was initially performed in full scan mode. […] For that, specific metabolites of methylone and pentedrone, already identified in previous studies, were selected to postulate their mass fragmentation according to their chemical structures (Figure 11) for posterior analysis using the specific ions (m/z in SIM mode) to identify and confirm the metabolite peaks. In SIM mode the selected m/z ions were: IS—m/z 77, 105, 110, and 154; methylone—m/z 121, 149, 154, and 303; nor-methylone—m/z 121, 140, 149, 168, 289, and 260; dihydromethylone—m/z 121, 154, 247, 280, and 401; DHMC—m/z 154, 182, 209, 237, and 391; N-hydroxymethylone—m/z 121, 149, 170, 198, and 319; nor-pentedrone—m/z 77, 105, 126, 168, and 273; dihydropentedrone—m/z 140, 182, 203, 272, and 385; and pentedrone—m/z 77, 105, 140, and 182.

[1] = Cell viability (CellTiter-Glo 3D) in 3D spheroid HLCs; format: cell-based, human; conditions: human; racemate, 3D-HLCs, 24 h exposure, 0-20.0 mM; read-out: EC50 (cytotoxicity)
Procedure: (§4) The hnMSCs isolated from human umbilical cord stroma were fully characterized as described elsewhere and expanded in Eagle’s minimum essential medium—alpha modification (α-MEM) supplemented with 10% (v/v) of fetal bovine serum (FBS; Gibco, Paisley, UK). For generating HLCs, a three-step differentiation protocol was applied to hnMSCs, as detailed previously. Briefly, hnMSCs were seeded at a density of 1.5 × 10^5 cells/cm^2 in a rat-tail collagen (0.2 mg/mL) coated surface plates. At day 17 (D17) of differentiation, cells were trypsinized and reinoculated in Iscove’s modified Dulbecco’s medium (IMDM) with 8 ng/mL oncostatin M (OSM; Peprotech, Rocky Hill, NJ, USA), 1 µM dexamethasone, 1% dimethyl sulfoxide (DMSO) and 1% insulin-transferrin-selenium solution (Gibco, Grand Island, NY, USA), 20 µM of 5-azacytidine, and 5% (v/v) FBS into (i) ultra-low attachment (ULA; VWR International, Radnor, PA, USA) plates (5 × 10^5 cells/mL) to obtain a 3D spheroid culture or (ii) 2D culture plates pre-coated with collagen (2 × 10^4 cells/cm^2). Medium was changed 24 h after inoculation to remove 5-azacytidine and FBS. Cells were maintained until D34 in this medium, which was replaced every 3 days.
(§5) The cytotoxicity of the racemic mixtures (0.25, 0.5, 1.0, 2.0, 3.0, 4.0, 6.0, 8.0, 10.0, and 20.0 mM) and enantiomers (0.5 and 1.0 mM) of pentedrone and methylone were evaluated in both 2D monolayer and 3D spheroid cultures of HLCs, maintained as described above with slight changes. Briefly, at D17 of differentiation, cells were seeded in 96-well plates in 200 μL of culture medium at a density of 6.4 × 10^3 cells/well and 1.6 × 10^4 cells/well in 2D and 3D cultures, respectively. At D34, HLCs cultured in 2D and 3D were exposed to the abovementioned racemic mixtures and enantiomers diluted in IMDM. Cell viability was measured upon 24 h of incubation with the compounds using the CellTiter-Glo® 3D Cell Viability Assay (Promega, Madison, WI, USA), according to manufacturer instructions. Five percent DMSO was used as negative control and IMDM as positive control. IC50 was calculated for the racemic mixtures using a nonlinear regression fit for the Log10 transformation of the concentration values by using GraphPad Prism version 7.0 (GraphPad Software, La Jolla, CA, USA). Three independent experiments were performed.

[2] = test system: 3D-HLCs (human stem-cell-derived hepatocyte-like cells); assay: as above; format: cell-based; conditions: 24 h; for concentrations at which cytotoxicity was observed: racemate, 3D-HLCs, compared to control cells
Procedure: as §4, §5

[3] = test system: primary rat hepatocytes (PRH); conditions: read-out: EC50 (cytotoxic effects), racemic; cited from earlier work
[4] = Cell viability (CellTiter-Glo 3D) in 2D monolayer HLCs; format: cell-based, human; conditions: human; racemate, 2D-HLCs, 24 h exposure, 0-20.0 mM; read-out: EC50 (cytotoxicity)
Procedure: as §4, §5

[5] = test system: 2D-HLCs (human stem-cell-derived hepatocyte-like cells); assay: as above; format: cell-based; conditions: racemate, 24 h, 0-20.0 mM
Procedure: as §4, §5

[6] = test system: human liver microsomes (HLM); assay: Metabolism in ultra-pool human liver microsomes by GC-MS; format: in vitro ADME; conditions: HLM 1 mg protein/mL, 50 µM enantiomer, 0-60 min
Procedure: The metabolism of methylone and pentedrone was initially evaluated by incubation with ultra-pool human liver microsomes (HLM) at a final assay concentration of 1 mg protein/mL. All experiments were performed in duplicate. The incubation mixture with the HLM consisted of 1.3 mM NADP^+, 3.3 mM glucose-6-phosphate, 3.3 mM MgCl2, 0.4 IU/mL glucose-6-phosphate dehydrogenase, and 0.05 mM sodium citrate in 0.1 M phosphate buffer at pH 7.4. The incubation mixture with each drug was pre-incubated 10 min at 37 °C before the experiment was started with the addition of the HLM. All microsomes assays were incubated with 50 µM of each enantiomer in a final volume of 1 mL at 37 °C. At the time points 0, 5, 10, 20, 30, 40, 50, and 60 min, 100 µL aliquots of the incubations were quenched with 100 µL of ice-cold acetonitrile and methcathinone (internal standard) 100 µg/mL. The quenched solutions were centrifuged for 10 min at 4 °C and the supernatants were extracted with ethyl acetate after previous pH correction (pH = 11 for pentedrone and pH = 13 for methylone).
To study pentedrone and methylone metabolic profiles, we set up a methodology for the identification of pentedrone and methylone phase I metabolites based on a GC–MS methodology developed by Araujo et al. and Uralets et al. with some adaptations. […]

[7] = cited from earlier work
3D-HLCs = assay: Metabolite formation in 3D-HLCs by GC-MS; format: in vitro ADME, human; conditions: 1 mM, 6 h
Procedure: as §1, §2, §3
The analysis was initially performed in full scan mode. […]

SH-SY5Y cells = test system: SH-SY5Y cells; set-up: method as in PMID 33609514; conditions: cited from earlier work
[8] = test system: human liver microsomes (HLM); conditions: cited from earlier work
Caco-2 cell monolayer = test system: Caco-2 cell monolayer; set-up: method as in PMID 32234388; conditions: cited from earlier work

| Compound | metabolite with the highest formation (2D-HLCs) | EC50 at 24 h [1] | concentrations at which cytotoxicity was observed [2] | EC50 [3] | EC50 at 24 h [4] | cytotoxicity compared to control cells [5] | phase I metabolites identified [6] | liver-to-blood ratio [7] | metabolite with the highest formation (3D-HLCs) | enantioselectivity in cytotoxicity (SH-SY5Y cells) | preferential metabolic route of the enantiomer (2D-HLCs) | preferential metabolic route of the enantiomer (3D-HLCs) | enantioselectivity in intestinal absorption (permeability) (Caco-2 cell monolayer) | further results |
| --- | --- | --- | --- | --- | --- | --- | --- | --- | --- | --- | --- | --- | --- | --- |
| CCCC(NC)C(=O)c1ccccc1 (centres unmarked) [pentedrone] | dihydropentedrone | 3.6 mM | higher than 1.0 mM | 0.7 mM | 2.8 mM | significant cytotoxicity for all concentrations tested | dihydropentedrone and nor-pentedrone | up to 11 | dihydropentedrone | – | – | – | – | – |
| CCC[C@H](NC)C(=O)c1ccccc1 [S-(+)-pentedrone] | – | – | – | – | – | – | – | – | – | most cytotoxic | – | – | – | – |
| CN[C@H](C)C(=O)c1ccc2c(c1)OCO2 [R-(+)-methylone] | – | – | – | – | – | – | – | – | – | most cytotoxic | preferentially metabolized by O-demethylation and N-hydroxylation | preferentially metabolized by all metabolic routes, except for O-demethylation | – | – |
| CNC(C)C(=O)c1ccc2c(c1)OCO2 (centres unmarked) [methylone] | N-Hydroxymethylone | 5.2 mM | > 3000 µM | 1.6 mM | 4.8 mM | significant cytotoxicity for all concentrations tested | N-hydroxymethylone, DHMC, dihydromethylone, and nor-methylone | ≤ 3 | N-Hydroxymethylone | – | – | – | – | enzymes metabolizing the drug [8]: initially metabolized by CYP2D6, with minor contributions of CYP1A2, CYP2B6, and CYP2C19 |
| CCC[C@@H](NC)C(=O)c1ccccc1 [R-(−)-pentedrone] | – | – | – | – | – | – | – | – | – | – | preferentially metabolized by all metabolic routes | preferentially metabolized by β-keto reduction | most permeable | enantioselectivity in cytotoxicity ([2]; enantiomers at 1 mM, 3D cultures): most cytotoxic enantiomer |
| S-(−)-methylone | – | – | – | – | – | – | – | – | – | – | preferentially metabolized via N-demethylation | – | most permeable | – |
